The values below come from patent publication EP0233461B2, “4,5,6-Substituted-2-pyrimidinamines” (AMERICAN CYANAMID COMPANY, priority 1986, dated 1987).

As a reminder, the IC50 is the concentration that inhibits the measured activity by half.

Counter-ions that a name gives are not always drawn. A value given as a limit tells only on which side of the number the result lay.

The test system of the first test is human basophils. The test is described as follows: Inhibition of histamine release from immunologically stimulated human basophils. It counts as cell-based. To be noted: Homo sapiens, concentration causing 50% inhibition of histamine release, by linear regression; active if IC50 ≦ 48 µM; read-out: IC50. The procedure: The blood is allowed to sediment at room temperature in two 50 ml polycarbonate centrifuge tubes until a sharp interface develops between the red cells and plasma (60-90 minutes). The plasma (top) layer from each tube is withdrawn by pipet and transferred to respective 50 ml polycarbonate tubes. The plasma is centrifuged for 8 minutes at 110X G at 4°C. The supernatant is carefully poured off as completely as possible and the cell button is resuspended in 2-3 ml of Tris-A buffer using a siliconized Pasteur pipet. The resuspension is accomplished by drawing the liquid gently in an out of the pipet, with the tip below the liquid until an even suspension of cells is obtained. Sufficient Tris-A buffer is then added to bring the volume in the tube to about 45 ml and the tube is centrifuged at 110X G for 8 minutes at 4°C. The supernatant is poured off and the cell button is resuspended and centrifuged as described above. The supernatant is poured off and the cell button is suspended in 2-3 ml of Tris-ACM buffer to make the final volume sufficient to allow addition to the reaction tubes. Reaction tubes containing anti-IgE or antigens, either alone or with test compound in a total volume of 0.2 ml are prepared and placed in a 37°C bath. The cells are warmed to 37°C and frequently swirled to ensure an even suspension, while 1.0 ml aliquots are added to each reaction tube. The tubes are then incubated for 60 minutes at 37°C, vortexing the tubes gently every 15 minutes to keep the cells evenly suspended. When the reaction is complete, the tubes are centrifuged at 4°C for 10 minutes at 1500 rpm to sediment the cells. […] Blanks and totals are included in each test. The blanks have cells and all reagents except antigen or anti-IgE. The totals contain 0.24 ml of 8% perchloric acid, one ml of cells and 0.2 ml of buffer. All samples are then centrifuged to remove the precipitate protein. […] The automated system consists of the following Technicon Autoanalyzer II components Sampler IV, Dual-Speed Proportioning Pump III, Fluoronephelometer with a narrow pass primary filter 7-60 and a secondary filter 3-74, Recorder, and Digital Printer. The manifold used is the one described by Siraganian vide supra, with the following modifications: the dialyzer is omitted; all pumping tubes pass through a single proportioning pump with large capacity and twice the volume of sample is taken for anaylsis. The automated chemistry consists of the following steps: Extraction from alkaline saline into butanol, back extraction into dilute hydrochloric acid by addition of heptane, reaction of histamine with o-phthaldialdehyde (OPT) at high pH and conversion of the OPT adduct to a stable fluorophore with phosphoric acid. The reaction product is then passed through the fluorometer. The full scale response is adjusted to 50 ng histamine base with a threshold sensitivity of approximately 0.5 ng. The instrument blank (wash) is substracted from the ng histamine of each sample. Then the ng histamine of each sample is divided by the mean of the three totals (cells lysed with perchloric acid) to obtain percent release. Control samples contain antigen but no test compound. Blank (or spontaneous release) samples contain neither antigen nor test compound. The mean of the blanks (three replicates) is subtracted from the percent release for controls and test compounds.
Consider `CC(=O)Nc1ccc(Nc2nccc(-c3cccnc3)n2)cc1C`, for which the IC50 is 1.8 µM.
The same measure, in the same setting: then `CC(=O)c1cccc(Nc2nccc(-c3cccnc3)n2)c1` [1-[3-[[4-(3-Pyridinyl)-2-pyrimidinyl]amino]-phenyl]ethanone], with 4.1 µM; and `CON=C(C)c1ccc(Nc2nccc(-c3cccnc3)n2)cc1` [1-[4-[[4-(3-Pyridinyl)-2-pyrimidinyl]amino]phenyl]ethanone, O-methyloxime], with 5.1 µM; and `CC(=NO)c1ccc(Nc2nccc(-c3cccnc3)n2)cc1` [1-[4-[[4-(3-Pyridinyl)-2-pyrimidinyl]amino]phenyl]ethanone, oxime], with 11.4 µM.
In the case of `CC(=NNC(N)=O)c1ccc(Nc2nccc(-c3cccnc3)n2)cc1` [2-[1-[4-[[4-(3-Pyridinyl)-2-pyrimidinyl]amino]phenyl]ethylidene]hydrazinecarboxamide], the IC50 was 8.1 µM.
Still for that read-out and setting: the same measure for `Oc1ccccc1Nc1nccc(-c2cccnc2)n1` [2-[[4-(3-Pyridinyl)-2-pyrimidinyl]amino]phenol]: 23.5 µM.
Still for that read-out and setting: then `NS(=O)(=O)c1cccc(Nc2nccc(-c3ccccn3)n2)c1` [3-[[4-(2-Pyridinyl)-2-pyrimidinyl]amino]benzenesulfonamide], with 0.7 µM; and `CCOC(=O)c1cccc(Nc2nccc(-c3ccccn3)n2)c1` [3-[[4-(2-Pyridinyl)-2-pyrimidinyl]amino]benzoic acid, ethyl ester], with 3 µM.
On the same count and under the same terms, then `NS(=O)(=O)c1cccc(Nc2nccc(-c3cccnc3)n2)c1` [3-[[4-(3-Pyridinyl)-2-pyrimidinyl]amino]benzenesulfonamide], with 0.2 µM; and `CCOC(=O)c1cccc(Nc2nccc(-c3cccnc3)n2)c1` [3-[[4-(3-Pyridinyl)-2-pyrimidinyl]amino]benzoic acid, ethyl ester], with 20.3 µM; and `NS(=O)(=O)c1cccc(Nc2nccc(-c3ccncc3)n2)c1` [3-[[4-(4-Pyridinyl)-2-pyrimidinyl]-amino]benzenesulfonamide], with 0.5 µM.
As to `Cc1cccc(Nc2nccc(-c3cc4ccccc4[nH]3)n2)c1` [4-(1H-Indol-2-yl)-N-(3-methylphenyl)-2-pyrimidinamine], the IC50 worked out at 2.2 µM.
On the same count and under the same terms, the same measure for `c1ccc(Nc2nccc(-c3c[nH]c4ccccc34)n2)cc1` [4-(1H-Indol-3-yl)-N-phenyl-2-pyrimidinamine]: 3 µM; for `Cc1cc(C)cc(Nc2nccc(-c3cc(C)oc3C)n2)c1` [4-(2,5-Dimethyl-3-furanyl)-N-(3,5-dimethylphenyl)-2-pyrimidinamine]: 4.1 µM.
As for `Cc1cccc(Nc2nccc(-c3cc(C)oc3C)n2)c1` [4-(2,5-Dimethyl-3-furanyl)-N-(3-methylphenyl)-2-pyrimidinamine], the IC50 was determined as 28.5 µM.
With `CCc1ccc(Nc2nccc(-c3cc(C)oc3C)n2)cc1` [4-(2,5-Dimethyl-3-furanyl)-N-(4-ethylphenyl)-2-pyrimidinamine], the IC50 came to 19.2 µM.
Still for that read-out and setting: then `Cc1cc(-c2ccnc(Nc3ccccc3)n2)c(C)o1` [4-(2,5-Dimethyl-3-furanyl)-N-phenyl-2-pyrimidinamine], with 2 µM; and `COc1cccc(Nc2nccc(-c3cc4ccccc4o3)n2)c1` [4-(2-Benzofuranyl)-N-(3-methoxyphenyl)-2-pyrimidinamine], with 1.2 µM.
As for `Cc1cnc(Nc2ccccc2)nc1-c1ccco1` [4-(2-Furanyl)-5-methyl-N-phenyl-2-pyrimidinamine], the IC50 is 17.7 µM.
Still for that read-out and setting: the same measure for `COc1cccc(Nc2nccc(-c3ccco3)n2)c1` [4-(2-Furanyl)-N-(3-methoxyphenyl)-2-pyrimidinamine]: 0.3 µM.
Still for that read-out and setting: then `Cc1cccc(Nc2nccc(-c3ccco3)n2)c1` [4-(2-Furanyl)-N-(3-methylphenyl)-2-pyrimidinamine], with 3.5 µM.
For the molecule `COc1ccc(Nc2nccc(-c3ccco3)n2)cc1` [4-(2-Furanyl)-N-(4-methoxyphenyl)-2-pyrimidinamine], the IC50 is under 48 µM.
Same read-out and setting: the same measure for `c1cc(Nc2nccc(-c3ccco3)n2)cc(-n2ccnc2)c1` [4-(2-Furanyl)-N-[3-(1H-imidazol-1-yl)phenyl]-2-pyrimidinamine]: 0.8 µM.
As for `FC(F)(F)c1cccc(Nc2nccc(-c3ccco3)n2)c1` [4-(2-Furanyl)-N-[3-(trifluoromethyl)phenyl]-2-pyrimidinamine], the IC50 is under 48 µM.
Consider `c1coc(-c2ccnc(Nc3ccc(-n4ccnc4)cc3)n2)c1` [4-(2-Furanyl)-N-[4-(1H-imidazol-1-yl)phenyl]-2-pyrimidinamine], for which the IC50 came to 2.2 µM.
On the same count and under the same terms, the same measure for `CN1CCN(c2ccc(Nc3nccc(-c4ccco4)n3)cc2)CC1` [4-(2-Furanyl)-N-[4-(4-methyl-1-piperazinyl)phenyl]-2-pyrimidin-amine]: 1.8 µM; for `c1ccc(Nc2nccc(-c3ccco3)n2)cc1` [4-(2-Furanyl)-N-phenyl-2-pyrimidinamine]: 48 µM.
Same read-out and setting: the same measure for `FC(F)(F)c1cccc(Nc2nccc(-c3ccccn3)n2)c1` [4-(2-Pyridinyl)-N-[3-(trifluoromethyl)phenyl]-2-pyrimidinamine]: 2.9 µM; for `FC(F)(F)c1cccc(Nc2nccc(-c3cccnc3)n2)c1` [4-(3-Pyridinyl)-N-[3-(trifluoromethyl)phenyl]-2-pyrimidinamine, hydrochloride]: 0.7 µM.
With `Cc1cc(C)c(Nc2nccc(-c3ccncc3)n2)c(C)c1` [4-(4-Pyridinyl)-N-(2,4,6-trimethylphenyl)-2-pyrimidinamine], the IC50 is 10.5 µM.
For the molecule `FC(F)(F)c1cccc(Nc2nccc(-c3ccncc3)n2)c1` [4-(4-Pyridinyl)-N-[3-(trifluoro-methyl)phenyl]-2-pyrimidinamine], the IC50 was determined as 32 µM.
With `Cc1cccc(Nc2nccc(-c3ccc(C)o3)n2)c1` [4-(5-Methyl-2-furanyl)-N-(3-methylphenyl)-2-pyrimidinamine], the IC50 was 2 µM.
Same read-out and setting: then `Cc1cc(-c2ccc(C)s2)nc(Nc2ccccc2)n1` [4-Methyl-6-(5-methyl-2-thienyl)-N-phenyl-2-pyrimidinamine], with 24.8 µM; and `Cc1cc(-c2ccccn2)nc(Nc2ccccc2)n1` [4-Methyl-N-phenyl-6-(2-pyridinyl)-2-pyrimidinamine], with 26.8 µM.
Still for that read-out and setting: then `COc1ccc(Nc2nccc(-c3cc[n+](C)cc3)n2)cc1` [4-[2-[(4-Methoxyphenyl)amino]-4-pyrimidinyl]-1-methylpyridinium, iodide], with 33.3 µM.

Still in this test, the particulars now being: concentration causing 50% inhibition of histamine release, by linear regression; active if IC50 ≦ 48 µM; read-out: IC50.
For `Cc1cccc(Nc2nccc(-c3ccco3)n2)c1` [4-(2-Furanyl)-N-[3-(methylphenyl)]-2-pyrimidinamine, sulfate], the IC50 was determined as 3 µM.

The same test, now with this note: concentration causing 50% inhibition of histamine release, by linear regression; active if IC50 ≦ 48 µM; sulfate.
`Cc1cnc(Nc2ccccc2)nc1-c1ccco1` [4-(2-Furanyl)-5-methyl-N-phenyl-2-pyrimidinamine, sulfate] had an IC50 of 5 µM.
`FC(F)(F)c1cccc(Nc2nccc(-c3ccccn3)n2)c1` [4-(2-Pyridinyl)-N-[3-(trifluoromethyl)phenyl]-2-pyrimidinamine, sulfate] had an IC50 of 3 µM.
Consider `FC(F)(F)c1cccc(Nc2nccc(-c3cccnc3)n2)c1` [4-(3-Pyridinyl)-N-[3-(trifluoromethyl)phenyl]-2-pyrimidinamine, sulfate], for which it took 2.6 µM to reach half-maximal inhibition (IC50).
In the case of `FC(F)(F)c1cccc(Nc2nccc(-c3ccncc3)n2)c1` [4-(4-Pyridinyl)-N-[3-(trifluoromethyl)phenyl]-2-pyrimidinamine, sulfate], the IC50 was under 48 µM.
